The test deals with CEM cells HIV-1 protection, formazan growth assay. The test can be described thus: NCI AIDS Antiviral Assay. Conditions: for pIC50: measured here: growth of uninfected CEM cells. The procedure, abridged: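 Category rules: moderately active means at least 50% protection on retest, and confirmed active means 100% protection reproducibly. The underlying data came from a formazan growth assay in HIV-1-infected CEM cells.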

What is called pEC50 is the EC50 on a negative log10 scale, so that one unit is a factor of ten. In general, pIC50 refers to −log10 of the IC50, conventionally taken in molar units.

pEC50, pIC50: −log10 of the molar value. Activity calls are given as the source filed them.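 The calls were made as follows: active = compounds giving half or more protection of infected cells from virus-caused growth loss, again on retest; inactive = the rest.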 Bounds are passed on as bounds.

Consider `Cc1noc(NS(=O)(=O)c2ccc(NC(=S)N/C=C(\C#N)C(N)=O)cc2)c1C`, for which the result was inactive.
The same measure, in the same setting: to `COc1nc(N)c(NC2OC(CO)C(O)C(O)C2O)c(=O)n1C` (stereo not given) belongs “inactive”.
In the case of `NCCN1C(=O)c2ccccc2C1(O)c1ccccc1` (stereo not given), the pEC50 was under 3.70 and the pIC50 was under 3.70.
With `O=C1N[C@H](C(=O)O)[C@@H](c2ccc(OCc3ccccc3)cc2)O1`, the pEC50 is under 3.70 and the pIC50 was under 3.70.
Regarding `O=S(=O)(Nc1nnc2c3ccccc3ccn12)c1ccc(F)cc1S`, the negative logarithm of the EC50 (pEC50) was 3.67 and the pIC50 was 3.60.
For `Nc1nc(Cl)c(N)c(NCC2(CO)CC2)n1` the same measures were under 3.70 and under 3.70.
For `C/C(CC(=O)Nc1ccc(NC(=O)C/C(C)=N\NC(N)=O)cc1)=N/NC(N)=O` the same measures were under 3.62 and under 3.62.
With `Oc1cc(C2OCCCO2)cc(O)c1O`, the pEC50 is under 3.64 and the pIC50 is 3.72.
Take `CC1(C)CC2(C)CC1CC2(O)c1ccccc1` (stereo not given): the pEC50 is under 3.66 and the pIC50 is 4.21.
As to `CCCCCCCCCCCCCCCC(=O)Nc1ccn(C2CCC(COP(=O)(O)OCC3OC(n4cc(C)c(=O)[nH]c4=O)CC3F)O2)c(=O)n1` (stereo not given), the pEC50 is 7.88 and the pIC50 is 6.70.
For `O=C1C=C(Nc2ccc([N+](=O)[O-])cc2)c2ccccc2C1=O` the same measures were under 5.17 and under 5.17.
For `O=c1cnn(C2OC(CO)C(O)C2O)c(=S)[nH]1` (stereo not given) the same measures were under 5.70 and 6.74.
For `CCOC(=O)CCCc1cc[c]([Sb](=[O])([OH])[OH])cc1`, the pEC50 was under 3.70 and the pIC50 is 4.14.
With `CNC(=O)N(C1=NCC(C)S1)c1ccc(C)c(C)c1` (stereo not given), the result was inactive.
As for `C[N+](C)([O-])CCCNc1ccnc2cccc([N+](=O)[O-])c12`, the pEC50 is under 3.70 and the pIC50 was 4.56.
Take `CNC(=O)SC1=NS(=O)(=O)c2ccc(Cl)cc2N1`: the pEC50 is 4.29 and the pIC50 is 3.73.
In the case of `Cn1c(=O)oc2cc(C(=O)CN3CCN(Cc4ccc5c(c4)OCO5)CC3)c(Cl)cc21`, the pEC50 is under 3.70 and the pIC50 was 3.75.
For `CNC(=O)N1CN(c2ccccc2)C2(CCN(CCCC(=O)c3ccc(F)cc3)CC2)C1=O` the same measures were under 3.70 and 4.98.
For `O=C1c2ccccc2-c2c1c1ccccc1c(=O)n2CCO` the same measures were under 4.46 and 5.71.
For `CCC1CCC2c3c([nH]c4ccccc34)C3C(=O)N(c4ccc(OC)cc4)C(=O)C3C2C1` (stereo not given) the same measures were 4.47 and under 3.70.
For `BrC12C3C4C5C(C(C43)C13OCCO3)C52` (stereo not given), the pEC50 was under 3.15 and the pIC50 was under 3.15.
Turning to `Cc1cc(=O)oc2c(CNC(C)C(=O)O)c(O)ccc12` (stereo not given), the pEC50 is under 3.70 and the pIC50 is 3.73.
For `CCOC(=O)C(C)(C)Oc1ccc2c(C)c(-c3ccc(Cl)cc3)c(=O)oc2c1` the same measures were under 4.89 and under 4.89.
For `CC12CCC(C1)C(O)(c1ccccc1)C2(O)c1ccccc1` (stereo not given) the same measures were under 4.22 and 4.35.
On to `COc1ccc(/C=c2\sc3nc(-c4ccccc4)nn3c2=O)cc1`, for which the pEC50 is 3.74 and the pIC50 was 3.71.
For `CC(=O)NC1C(OC(C)C(=O)NC(C(=O)NC(CCC(=O)NCCCNC2c3ccccc3Nc3cccc([N+](=O)[O-])c32)C(N)=O)C(C)C)C(O)C(CO)OC1(C)OCc1ccccc1` (stereo not given) the same measures were under 5.00 and 5.76.
Consider `Cc1ccc(C(C)C)c(OP(=S)(S)Oc2cc(C)ccc2C(C)C)c1`, for which the pEC50 is under 3.70 and the pIC50 is 5.38.
For `O=c1[nH]c2cc(Cl)ccc2nc1/C(=N\Nc1ccccc1)C(O)c1ccc2c(c1)OCO2` (stereo not given) the same measures were under 3.68 and under 3.68.
For `CN(/N=C/C=N/N(C)C1=NCCCN1)C1=NCCCN1` the same measures were 3.96 and under 3.70.
`CC1=N/C(=C\c2ccc(/C=C3/N=C(C)OC3=O)cc2)C(=O)O1`: the pEC50 is under 3.07 and the pIC50 is 4.33.
For the molecule `CC(=O)c1ccc(NC(=O)/C(CC(=O)c2sc(-c3cccnc3)nc2C)=N/NC(N)=O)cc1`, the pEC50 is under 4.67 and the pIC50 was under 4.67.
`Oc1ccccc1SSc1ccccc1O`: the pEC50 is under 3.70 and the pIC50 is 4.20.
Regarding `C=C1CCC(CC[C@@H]2CC[C@]3(OC2)O[C@@]2(O)CC[C@]3(C)OC2(C)C)C(C)(C)[C@H]1C/C=C1/C(=O)OC[C@@H]1O` (stereo not given in full), the outcome was inactive.
For `COc1ccc(OC)c(CCCC(=O)O)c1`, the pEC50 is 7.20 and the pIC50 is under 3.70.
In the case of `COc1ccc(-c2c3c([nH]c(=S)c2C#N)CCC3)cc1`, the negative logarithm of the EC50 (pEC50) was 3.75 and the pIC50 was under 3.70.
For the molecule `CCN(CC)CCCC(C)Nc1cc(-c2ccccc2)nc2ccc(OC)cc12` (stereo not given), the pEC50 is under 3.44 and the pIC50 was 5.70.
Take `CC1(C)C2CC(=O)C1(C)C(OCc1ccccc1)C2` (stereo not given): the outcome was inactive.
Take `Cc1c(NC(=O)OCc2ccccc2)no[n+]1[O-]`: the pEC50 is under 3.26 and the pIC50 was 3.89.
For `Cc1ccc(NC=O)c(-c2c(N)[nH]c(=S)[nH]c2=O)c1` the same measures were under 3.70 and 3.83.
As to `Clc1ccc2nc(-c3ccccc3)nc(Cl)c2c1`, the outcome was inactive.
As to `C#CCN(N=O)C(=O)NCCCCC(NC(C)=O)C(=O)NCc1ccccc1` (stereo not given), the pEC50 is under 3.19 and the negative logarithm of the IC50 (pIC50) was 4.25.
For `CCOC(=O)/C(=C/c1ccc([N+](=O)[O-])cc1)C(=O)c1ccccc1` the same measures were under 4.65 and 4.87.
For `CCOP(=O)(OCC)/C(C#N)=C/c1cccn1N(C)C` the same measures were under 3.59 and 3.61.
For `CCOC(=O)C(C)P(=O)(OC)OC` (stereo not given) the same measures were under 3.70 and under 3.70.
In the case of `Cn1cnc2nc3ncn(C)c3cc21`, the pEC50 is under 3.70 and the negative-log IC50 (pIC50) was under 3.70.
As to `C[C@H](N)C(=O)N[C@@H]1[C@H]2C(=C(O)C[C@@H](O)[C@@H]2O)C(=O)O[C@@H]1C`, the outcome was inactive.
With `O=C(c1ccccc1)c1c(-c2ccccc2)sc2nc3ccccc3nc12`, the pEC50 is under 4.56 and the pIC50 was under 4.56.
For `CCCNC(=S)NN1C2CSC1CS2`, the pEC50 was under 3.75 and the pIC50 is under 3.75.
In the case of `CC(C)CCCC(C)[C@H]1CC[C@H]2[C@@H]3CC[C@H]4C[C@@H](CCC=C(c5cc(Cl)c(OCc6ccc(B7OC(C)(C)C(C)(C)O7)cc6)c(C(=O)OCc6ccc(B7OC(C)(C)C(C)(C)O7)cc6)c5)c5cc(Cl)c(OCc6ccc(B7OC(C)(C)C(C)(C)O7)cc6)c(C(=O)OCc6ccc(B7OC(C)(C)C(C)(C)O7)cc6)c5)CC[C@]4(C)[C@H]3CC[C@]12C` (stereo not given in full), the pEC50 is under 3.70 and the pIC50 was under 3.70.
Consider `CCOP(=O)(OCC)OC1C=CC2CCC1C2` (stereo not given), for which the pEC50 was under 3.72 and the pIC50 is under 3.72.
As for `O=c1n(-c2ccccc2)c(=O)n2n1C1CC3c4ccccc4C1C32` (stereo not given), the pEC50 was under 4.64 and the pIC50 is under 4.64.
